In patent publication US11446253B2, “Ionic liquids for internal delivery” (priority 2017, dated 2022):
Where “and” joins values, the source holds several entries; their conditions need not be identical. Equal entries are not always repeated.

Experiments:
[1] = target: T1, bovine trypsin (Bos taurus, UniProt P00760); test: Trypsin-mediated degradation of insulin (LC-MS); type: biochemical; conditions: incubated with trypsin, 37° C., 24 h
T1 construct: purchased MP Biomedicals (Santa Ana, Calif., USA)
T1 sequence (P00760 24-246): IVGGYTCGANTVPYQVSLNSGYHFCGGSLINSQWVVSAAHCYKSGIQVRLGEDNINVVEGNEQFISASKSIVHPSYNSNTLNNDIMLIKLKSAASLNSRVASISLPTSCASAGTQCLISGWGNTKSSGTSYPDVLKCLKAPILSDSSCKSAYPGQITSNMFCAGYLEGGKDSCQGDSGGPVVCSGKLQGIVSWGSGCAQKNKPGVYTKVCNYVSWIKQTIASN
Method: Immediately after vortex (time=0 h; t0) and at predetermined time intervals, 0.1 mL of the insulin-trypsin mixture was aliquoted, and the enzyme activity was inhibited by the addition of 0.1 mL of ice-cold 0.1% trifluoroacetic acid/acetonitrile solution (69:31, v/v). The samples were analyzed by liquid chromatography-mass spectrometry (LC-MS) to determine the amount of intact insulin in the solution at different times. An Agilent 1290/6140 Ultra High Performance Liquid Chromatography/Mass Spectrometer consisting of a 1290 Infinity LC™ binary pump, thermostat column compartment, 1290 Infinity autosampler, an Agilent 1290 diode array detector and an Agilent 6140 quadrupole MSD system was used for the analyses. For an analysis, 3 μL of the samples were injected into an Agilent 300SB-C18 2.1×75 mm, 5 μm, maintained at 25° C. and eluted with a mobile phase consisting of a gradient mixture of deionized water with 0.1% formic acid (FA) (A) and acetonitrile (B) with 0.1% FA. A gradient of 95-5% (0 min), 0-100% (10 min), 0-100% (15 min), 95-5% (15.1 min), 95-5% (18 min) A:B was used for each run. […] All experiments were conducted in triplicate and are reported are mean±standard deviation.

[2] = system: non-diabetic male Wistar rats; test: In vivo bioactivity of insulin isolated from CAGE after storage; design: species or system rat; conditions: fresh, 1 U/kg subcutaneous, listed as Freshly prepared insulin solution
Source text: Prior to insulin injections, rats were fasted overnight but given free access to water and fasting continued throughout the study to eliminate variability in blood glucose due to food consumption. The results were plotted as % change in blood glucose compared to initial level vs time.

[3] = Serum insulin pharmacokinetics (human insulin ELISA); conditions: for AUCtotal: insulin-CAGE 5 U/kg intrajejunal, insulin 2 U/kg subcutaneous
Method: Standard protocol was followed for separation of serum from whole blood. Briefly, the blood samples were left undisturbed at RT for 15-30 minutes to allow clot formation, followed by centrifugation at 2,000 g for 10 minutes.
Fasting prior to anti-diabetic efficacy studies is routinely done (29, 62, 63). It helps avoid fluctuations in the blood glucose levels as a result of eating, which can vary between animals based on the amount and time of food intake. All animal experiments were performed in accordance with the University of California Santa Barbara animal care committee guidelines and to the Guide for the Care and Use of Animals of the Institute of Laboratory Animal Resources, National Research Council. […] The time zero blood glucose was taken after the intestine was exposed i.e. immediately prior to the injections. […] Loss in body temperature in the animals during anesthesia was prevented by placing the animals on temperature controlled warming pads prior to surgery followed by additional towel cover after surgery. The animals remained anesthetized throughout the study and were euthanized after 5 h. […] In addition, the saline group was considered as fasting control and graphs were plotted after subtracting blood glucose levels of the saline group. […] Standard protocol was followed for separation of serum from whole blood. Briefly, blood samples were left undisturbed at RT for 15-30 minutes to clot, followed by centrifugation at 2,000 g for 10 minutes. […] Pharmacodynamic bioavailability was calculated using AUC obtained from efficacy plots.

[4] = system: Caco-2 monolayers; test: FITC-insulin transport across Caco-2 monolayers; type: cell-based, human; conditions: Caco-2 monolayers, end of study at 5 h, 10 mM CAGE or saline
Method: TEER was measured on a regular basis and when it reached above 200 ohms·cm^2, indicating sufficient tight junction integrity between cells, transport study was performed.
After the end of study at 5 h, the FITC-insulin concentration in the aliquots were measured using a plate reader (Tecan, Infinite M1000, Mannedorf, Switzerland) at 495/520 nm excitation/emission wavelengths and plotted as % FITC-insulin transport vs time. Furthermore, TEER was measured at every time point when aliquots were withdrawn from the transwells and plotted as % change from initial value vs time.
TEER was measured on a regular basis and when it reached above 200 ohms. cm2, indicating sufficient tight junction integrity between cells, transport study was performed.
After the end of study at 5 h, the FITC-insulin concentration in the aliquots were measured using a plate reader (Tecan, Infinite M1000, Mannedorf, Switzerland) at 495/520 nm excitation/emission wavelengths and plotted as % FITC-insulin transport vs time. Furthermore, TEER was measured at every time point when aliquots were withdrawn from the transwells and plotted as […].

[5] = system: non-diabetic male Wistar rats; test: Blood glucose lowering after intrajejunal administration; type: in vivo, rat
Method: Before the start of the study, the rats were anesthetized, abdominal hair clipped and the area prepped for surgery using 70% ethanol and betadine. An incision was made in the abdomen to expose the intestine. […] Each formulation was tested in 6 rats with the exception of saline which was tested in only 3 rats. Thereafter, intestinal section was placed back into the abdomen and the muscle and skin sutured. Blood glucose was determined using a commercial glucose meter in the beginning and at every 0.5 h till the end of study at 5 h. The animals remained anesthetized throughout the study, at the end of which they were euthanized and the intestinal section around the injection site was removed for further histological examination to determine toxicity, if any. […] The results were plotted as % change in blood glucose levels with respect to initial reading at t=0 vs time.
Before the start of the study, the rats were anesthetized, abdominal hair clipped, and the surgery area was prepped using 70% ethanol and betadine. An incision was made in the abdomen to expose the intestine. […] The time zero blood glucose was taken after the intestine was exposed i.e. immediately prior to the injections. Each formulation was tested in 6 rats with the exception of saline which was tested in only 3 rats. Thereafter, intestinal section was placed back into the abdomen and the muscle and skin sutured. Blood glucose was determined using a commercial glucose meter at the beginning and at every 0.5 h till the end of study at 5 h. Loss in body temperature in the animals during anesthesia was prevented by placing the animals on temperature controlled warming pads prior to surgery followed by additional towel cover after surgery. The animals remained anesthetized throughout the study and were euthanized after 5 h. At the end of study at 5 h, the intestinal section around the injection site was removed for further histological examination to determine toxicity, if any. […] The results were plotted as % change in blood glucose levels with respect to initial reading vs time. In addition, the saline group was considered as fasting control and graphs were plotted after subtracting blood glucose levels of the saline group.

[6] = system: non-diabetic male Wistar rats; test: Blood glucose lowering after oral administration in enterically coated capsules; type: in vivo, rat
Method: (§1) For the oral efficacy study, adult non-diabetic male Wistar rats were fasted overnight but given free access to water. On the next day, the capsules were administered to the rats using an oral gavage followed by subcutaneous administration of 5 mg/kg metoclopramide HCl to promote gastric emptying. Blood glucose was thereafter measured using a commercial glucose meter and subsequently every hour till 12 h. Rats were fasted throughout the period of study. […] In addition, the efficacy of subcutaneously injected 2 U/kg insulin-saline was also evaluated. […] The results were plotted as percent change in blood glucose level vs time.
as §1, with “To determine the efficacy of insulin-CAGE administered through the oral route, elongated size 9 capsules were used. […] Following this, the capsules were enterically coated three times with 12.5% w/v Eudragit® L-100 dissolved in isopropanol. For” for “For”, “Next” for “On the next”, “was” for “was also”, “time. […] After 12 h of study, rats were euthanized, and small intestinal sections were collected for tissue histology.” for “time.”

[7] = stored at 4° C.; cited from earlier work
[8] = system: Non-diabetic Wistar rats; test: Consecutive oral dosing of neat CAGE capsule and insulin capsule; type: in vivo, rat; conditions: 10 U/kg insulin oral, 10 h
Method: Non-diabetic Wistar rats were fasted overnight for 8 h but given access to water ad libitum. […] The blood glucose for time 0 was evaluated at this point. […] Fasting was continued with free access to water till the end of study at 12 h and blood glucose was evaluated at various time points. The results were plotted as % change in blood glucose compared to initial level vs time.

[9] = system: Caco-2 cells; test: Tight junction integrity (TEER) in Caco-2 cells; type: cell-based, human; conditions: FITC-insulin with 10 mM CAGE or saline, 5 h
Method: […] Furthermore, TEER was measured at every time point when aliquots were withdrawn from the transwells and plotted as % change from initial value vs time.
TEER values were recorded for each insert. […] TEER was plotted as % change from initial value vs time.

With “insulin: human insulin (Sigma-Aldrich) in saline or buffer, comparator” the intact insulin remaining [1] was 5±0.4%, the “blood glucose, % of initial level” value ([2]; 1 h) was 50.73±2.47% and 51±2% and the “drop in blood glucose” value ([2]; 1 h) was 50% and 49%. The “blood glucose, % of initial level” value ([2]; 2 h) was 49.59±4.4% and 50±4%, the “blood glucose, % of original level” value ([2]; 5 h) was 92.05±4.8% and 92±5% and the serum insulin concentration ([3]; 3 U/kg intrajejunal) was “hardly increased”. For the same substance, the “serum insulin level with time” value ([3]; 5 U/kg intrajejunal) was “did not show any increase”, the AUCtotal ([3]; Table 1) was 237.6 μIU · h/ml and the AUCtotal ([3]; Table 2) was 237.6 μIU · h/mL. For the same substance, the FITC-insulin transport [4] was 10%, the “blood glucose, % of initial level” value ([5]; 2 U/kg subcutaneous, 1 h) was 48.76±7.55% and 49±8% and the “maximum drop in blood glucose” value ([5]; 2 U/kg subcutaneous, 1 h) was 51%. For the same substance, the “blood glucose, % of initial level” value ([5]; 2 U/kg subcutaneous, 5 h) was 101.61±6.69% and 101±7%, the “decrease in blood glucose of control groups, % of initial level” value ([5]; intrajejunal controls (neat CAGE, 3 U/kg insulin-saline), 5 h) was “about 25%” and the “blood glucose, % of initial level” value ([6]; 2 U/kg subcutaneous, 1 h) was 51.43±5.25% and 51±5%. The “drop in blood glucose” value ([6]; 2 U/kg subcutaneous, 1 h) was 50% and 49%, the “decrease in blood glucose of formulation controls” value ([6]; oral controls, 12 h) was “about 25%” and the “stability at 4° C.” value [7] was 2 to 7 days. For the same substance, the blood glucose drop [8] was “around 34%”, the “blood glucose, % of initial levels” value [8] was 66.9±7.1% and the “TEER, % of initial value” [9] was 98.5±2.64%.
